molecular target: T1, human full-length recombinant PKC βII (Homo sapiens, UniProt P05771); test: Determination of PKC βII inhibition (Caliper mobility shift kinase assay); format: biochemical; conditions: final compound concentration 1.14 μM (±0.15 μM); 60 min incubation at 32° C.
T1 construct: Active human full-length recombinant PKC βII; purchased Invitrogen GmbH, Darmstadt, Germany
Procedure: Determination of PKC βII Inhibition
PKC βII inhibition was determined according to the following protocol:
Active human full-length recombinant PKC βII and the peptide substrate, Fluorescein-RFARKGSLRQKNV, were purchased from Invitrogen GmbH, Darmstadt, Germany. Adenosine-5′-triphosphate (ATP), bovine serum albumine (BSA), dimethylsulphoxide (DMSO), 4-(2-hydroxyethyl)piperazine-1-ethanesulfonic acid (Hepes), Triton X-100, 1,2-Dioleoyl-sn-glycerol (DAG), L-α-Phosphatidyl-L-serine (PS), calcium chloride (CaCl2), and Pluronic F-68 were purchased from Sigma-Aldrich, Munich, Germany. Magnesium chloride, 1 M sodium hydroxide solution, 1M hydrochloric acid solution and EDTA were obtained from Merck Biosciences, Darmstadt, Germany.
Test compounds were diluted to three times the test concentration in buffer 1 (30 mM Hepes-NaOH, pH 7.4, 0.01% Pluronic F-68 and 3% (v/v) DMSO). The […] enzyme was diluted to a concentration of 30 ng/ml in buffer 2 (30 mM Hepes-NaOH, pH 7.4, 15 mM MgCl2, 150 μM CaCl2, 150 μg/ml PS, 60 μg/ml DAG, and 0.045% (w/v) Triton X-100). The peptide substrate and ATP were diluted to concentrations of 3 μM and 120 μM, respectively, in buffer 2. Two μl of the compound solution were mixed with 2 μl of the diluted enzyme in a 384-well small volume microtiter plate (Greiner, Bio-One, Frickenhausen, Germany), and the kinase reaction was initiated by addition of 2 μl of the solution containing peptide substrate and ATP. After 60 min incubation at 32° C., the reaction was stopped by addition of 20 μl of a solution containing 130 mM Hepes-NaOH, pH 7.4, 0.0195% (v/v) Brij-35, 6.5 mM EDTA, 0.13% chip coating reagent 3 (Caliper Lifescience Inc, Hopkinton, Mass.) and 6.5% (v/v) DMSO. Phosphorylation of the substrate peptide was then detected on a Caliper 3000 instrument essentially as described by Pommereau et al (J. Biomol. Screening 2004, 9(5), 409-416). Separation conditions were as follows: Pressure −0.8 psi, upstream voltage −3000 V, downstream voltage −800 V. Positive controls (buffer 1 instead of compound) and negative controls (buffer 1 instead of compound and buffer 2 instead of kinase solution) were run in parallel on each plate. Fractional turnover (R) was determined as the height of the peak of the phosphorylated peptide product divided by the sum of the unphosphorylated substrate and phosphorylated product peak heights. Percent-inhibition values for the test compounds were determined using the formula % Inhibition=100*(1−(Rcompound−Rnegative control)/(Rpositive control−Rnegative control).
In the following table % inhibition values observed with example compounds at a final concentration of 1.14 μM (±0.15 μM) are listed: […]

T1 sequence (P05771 1-673 isoform P05771-2): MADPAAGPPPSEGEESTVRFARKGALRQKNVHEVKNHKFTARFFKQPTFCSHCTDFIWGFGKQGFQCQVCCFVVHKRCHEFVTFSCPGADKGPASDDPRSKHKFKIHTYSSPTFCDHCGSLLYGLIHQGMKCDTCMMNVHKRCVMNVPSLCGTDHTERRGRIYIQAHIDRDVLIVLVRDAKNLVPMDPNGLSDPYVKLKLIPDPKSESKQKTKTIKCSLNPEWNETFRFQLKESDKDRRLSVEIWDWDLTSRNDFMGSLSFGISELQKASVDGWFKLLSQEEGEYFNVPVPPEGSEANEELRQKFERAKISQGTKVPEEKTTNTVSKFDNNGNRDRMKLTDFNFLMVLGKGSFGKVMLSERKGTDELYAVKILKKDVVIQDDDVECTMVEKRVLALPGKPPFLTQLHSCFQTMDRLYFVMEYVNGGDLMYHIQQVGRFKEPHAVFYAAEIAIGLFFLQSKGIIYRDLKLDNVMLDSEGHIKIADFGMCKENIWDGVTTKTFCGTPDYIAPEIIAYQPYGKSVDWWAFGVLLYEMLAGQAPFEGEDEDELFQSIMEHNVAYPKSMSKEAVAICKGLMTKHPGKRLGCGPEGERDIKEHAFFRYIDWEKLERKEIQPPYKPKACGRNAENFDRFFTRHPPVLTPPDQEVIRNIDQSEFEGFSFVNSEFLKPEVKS

Compared with `Cc1n[nH]c2nc(-c3ccc(O)cc3F)cc(CN3C[C@@H](c4ccccc4)NC[C@@H]3C)c12` (relative stereo) [Example 29, 3-Fluoro-4-[3-methyl-4-(trans-2-methyl-5-phenyl-piperazin-1-ylmethyl)-1H-pyrazolo[3,4-b]pyridin-6-yl]-phenol], `Cc1n[nH]c2nc(-c3ccc(O)cc3)cc(CN3C[C@@H](C)NC[C@@H]3c3ccccc3)c12` (relative stereo) [Example 43, 4-[3-Methyl-4-(trans-5-methyl-2-phenyl-piperazin-1-ylmethyl)-1H-pyrazolo[3,4-b]pyridin-6-yl]-phenol] is lower in “% Inhibition” value: 90% for the first, 58% for the second.

Going from `Cc1n[nH]c2nc(-c3ccc(O)cc3F)cc(CN3CCNCC3c3ccccc3)c12` (centres unmarked) [Example 1, 3-Fluoro-4-[3-methyl-4-(2-phenyl-piperazin-1-ylmethyl)-1H-pyrazolo[3,4-b]pyridin-6-yl]-phenol] to `Cc1n[nH]c2nc(-c3ccc(O)cc3F)cc(CN3CCNCC3c3cccc(F)c3)c12` (centres unmarked) [Example 6, 3-Fluoro-4-{4-[2-(3-fluoro-phenyl)-piperazin-1-ylmethyl]-3-methyl-1H-pyrazolo[3,4-b]pyridin-6-yl}-phenol], the inhibition at 1.14 µM falls from 95% to 91%.

Going from `Cc1n[nH]c2nc(-c3ccc(O)cc3F)cc(CN3CCNCC3c3ccc(C(C)C)cc3)c12` (centres unmarked) [Example 2, 3-Fluoro-4-{4-[2-(4-isopropyl-phenyl)-piperazin-1-ylmethyl]-3-methyl-1H-pyrazolo[3,4-b]pyridin-6-yl}-phenol] to `Cc1n[nH]c2nc(-c3ccc(O)cc3F)cc(CN3CCNCC3c3ccc(F)cc3)c12` (centres unmarked) [Example 4, 3-Fluoro-4-{4-[2-(4-fluoro-phenyl)-piperazin-1-ylmethyl]-3-methyl-1H-pyrazolo[3,4-b]pyridin-6-yl}-phenol], the inhibition at 1.14 µM rises from 65% to 94%.

Compared with `Cc1n[nH]c2nc(-c3ccc(O)cc3F)cc(CN3CCNCC3c3ccc(C(F)(F)F)cc3)c12` (centres unmarked) [Example 3], `Cc1n[nH]c2nc(-c3ccc(O)cc3F)cc(CN3CCNCC3c3cccc(C(F)(F)F)c3)c12` (centres unmarked) [Example 8, 3-Fluoro-4-{3-methyl-4-[2-(3-trifluoromethyl-phenyl)-piperazin-1-ylmethyl]-1H-pyrazolo[3,4-b]pyridin-6-yl}-phenol] is higher in inhibition at 1.14 µM: 68% for the first, 92% for the second.

Compared with `Cc1n[nH]c2nc(-c3ccc(O)cc3F)cc(CN3CCNCC3C(F)(F)F)c12` (centres unmarked) [Example 5, 3-Fluoro-4-[3-methyl-4-(2-trifluoromethyl-piperazin-1-ylmethyl)-1H-pyrazolo[3,4-b]pyridin-6-yl]-phenol], `Cc1n[nH]c2nc(-c3ccc(O)cc3F)cc(CN3CC(C)NCC3C(F)(F)F)c12` (centres unmarked) [Example 19, 3-Fluoro-4-[3-methyl-4-(5-methyl-2-trifluoromethyl-piperazin-1-ylmethyl)-1H-pyrazolo[3,4-b]pyridin-6-yl]-phenol] is lower in inhibition at 1.14 µM: 109% for the first, 99% for the second.

First: Cc1n[nH]c2nc(-c3ccc(O)cc3F)cc(CN3CCNCC34CCCC4)c12 [Example 7, 4-[4-(6,9-Diaza-spiro[4.5]dec-6-ylmethyl)-3-methyl-1H-pyrazolo[3,4-b]pyridin-6-yl]-3-fluoro-phenol]
Second: Cc1n[nH]c2nc(-c3ccc(O)cc3F)cc(CN3CCNCC34CCC4)c12 [Example 17, 4-[4-(5,8-Diaza-spiro[3.5]non-5-ylmethyl)-3-methyl-1H-pyrazolo[3,4-b]pyridin-6-yl]-3-fluoro-phenol]
The inhibition at 1.14 µM of the first is higher: 103% for the first, 98% for the second.

Going from `Cc1n[nH]c2nc(-c3ccc(O)cc3F)cc(CN3CCNCC3c3cc(F)cc(F)c3)c12` (centres unmarked) [Example 9, 4-{4-[2-(3,5-Difluoro-phenyl)-piperazin-1-ylmethyl]-3-methyl-1H-pyrazolo[3,4-b]pyridin-6-yl}-3-fluoro-phenol] to `Cc1n[nH]c2nc(-c3ccc(O)cc3F)cc(CN3CCNCC3c3ccccc3F)c12` (centres unmarked) [Example 10, 3-Fluoro-4-{4-[2-(2-fluoro-phenyl)-piperazin-1-ylmethyl]-3-methyl-1H-pyrazolo[3,4-b]pyridin-6-yl}-phenol], the inhibition at 1.14 µM rises from 81% to 102%.

Compared with `Cc1n[nH]c2nc(-c3ccc(O)cc3F)cc(CN3CC(C)NCC3(C)C)c12` (centres unmarked) [Example 11, 3-Fluoro-4-[3-methyl-4-(2,2,5-trimethyl-piperazin-1-ylmethyl)-1H-pyrazolo[3,4-b]pyridin-6-yl]-phenol], `Cc1n[nH]c2nc(-c3ccc(O)cc3F)cc(CN3CC(C(C)C)NCC3(C)C)c12` (centres unmarked) [Example 20, 3-Fluoro-4-[4-(5-isopropyl-2,2-dimethyl-piperazin-1-ylmethyl)-3-methyl-1H-pyrazolo[3,4-b]pyridin-6-yl]-phenol] is lower in inhibition at 1.14 µM: 104% for the first, 98% for the second.

First: Cc1n[nH]c2nc(-c3ccc(O)cc3F)cc(CN3CCNCC3(C)c3ccccc3)c12 (centres unmarked) [Example 12, 3-Fluoro-4-[3-methyl-4-(2-methyl-2-phenyl-piperazin-1-ylmethyl)-1H-pyrazolo[3,4-b]pyridin-6-yl]-phenol]
Second: Cc1n[nH]c2nc(-c3ccc(O)cc3F)cc(CN3CCNCC3(C)C)c12 [Example 26, 4-[4-(2,2-Dimethyl-piperazin-1-ylmethyl)-3-methyl-1H-pyrazolo[3,4-b]pyridin-6-yl]-3-fluoro-phenol]
The inhibition at 1.14 µM of the first is higher: 94% for the first, 92% for the second.

Going from `Cc1n[nH]c2nc(-c3ccc(O)cc3F)cc(CN3CCNCC3)c12` [Example 13, 3-Fluoro-4-(3-methyl-4-piperazin-1-ylmethyl-1H-pyrazolo[3,4-b]pyridin-6-yl)-phenol] to `Cc1n[nH]c2nc(-c3ccc(O)cc3F)cc(CN3CCNCC34CC4)c12` [Example 14, 4-[4-(4,7-Diaza-spiro[2.5]oct-4-ylmethyl)-3-methyl-1H-pyrazolo[3,4-b]pyridin-6-yl]-3-fluoro-phenol], the inhibition at 1.14 µM rises from 81% to 98%.

Compared with `Cc1n[nH]c2nc(-c3ccc(O)cc3F)cc(CN3CC(C)(C)NCC34CCCC4)c12` [Example 15, 4-[4-(8,8-Dimethyl-6,9-diaza-spiro[4.5]dec-6-ylmethyl)-3-methyl-1H-pyrazolo[3,4-b]pyridin-6-yl]-3-fluoro-phenol], `Cc1n[nH]c2nc(-c3ccc(O)cc3F)cc(CN3CC(C)NCC34CCCC4)c12` (centres unmarked) [Example 16, 3-Fluoro-4-[3-methyl-4-(8-methyl-6,9-diaza-spiro[4.5]dec-6-ylmethyl)-1H-pyrazolo[3,4-b]pyridin-6-yl]-phenol] is higher in inhibition at 1.14 µM: 96% for the first, 99% for the second.

First: CCC1(CC)CNCCN1Cc1cc(-c2ccc(O)cc2F)nc2[nH]nc(C)c12 [Example 18, 4-[4-(2,2-Diethyl-piperazin-1-ylmethyl)-3-methyl-1H-pyrazolo[3,4-b]pyridin-6-yl]-3-fluoro-phenol]
Second: CCC1(CC)CN(Cc2cc(-c3ccc(O)cc3F)nc3[nH]nc(C)c23)C(C)(C)CN1 [Example 22, 4-[4-(5,5-Diethyl-2,2-dimethyl-piperazin-1-ylmethyl)-3-methyl-1H-pyrazolo[3,4-b]pyridin-6-yl]-3-fluoro-phenol]
The inhibition at 1.14 µM of the first is higher: 98% for the first, 89% for the second.

Going from `CCC1(C)CN(Cc2cc(-c3ccc(O)cc3F)nc3[nH]nc(C)c23)C(C)(C)CN1` (centres unmarked) [Example 21, 4-[4-(5-Ethyl-2,2,5-trimethyl-piperazin-1-ylmethyl)-3-methyl-1H-pyrazolo[3,4-b]pyridin-6-yl]-3-fluoro-phenol] to `Cc1n[nH]c2nc(-c3ccc(O)cc3F)cc(CN3CC(C)(C4CC4)NCC3(C)C)c12` (centres unmarked) [Example 23, 4-[4-(5-Cyclopropyl-2,2,5-trimethyl-piperazin-1-ylmethyl)-3-methyl-1H-pyrazolo[3,4-b]pyridin-6-yl]-3-fluoro-phenol], the inhibition at 1.14 µM rises from 93% to 99%.

First: Cc1n[nH]c2nc(-c3ccc(O)cc3F)cc(CN3CCCC(C)(N)C3)c12 (centres unmarked) [Example 24, 4-[4-(3-Amino-3-methyl-piperidin-1-ylmethyl)-3-methyl-1H-pyrazolo[3,4-b]pyridin-6-yl]-3-fluoro-phenol]
Second: Cc1n[nH]c2nc(-c3ccc(O)cc3F)cc(CN3CCCNC(C)C3)c12 (centres unmarked) [Example 25, 3-Fluoro-4-[3-methyl-4-(3-methyl-[1,4]diazepan-1-ylmethyl)-1H-pyrazolo[3,4-b]pyridin-6-yl]-phenol]
The inhibition at 1.14 µM of the first is lower: 94% for the first, 102% for the second.

Compound `Cc1n[nH]c2nc(-c3ccc(O)cc3F)cc(CN3C[C@@H](C)NC[C@@H]3C)c12` [Example 27, 4-[4-((2S,5R)-2,5-Dimethyl-piperazin-1-ylmethyl)-3-methyl-1H-pyrazolo[3,4-b]pyridin-6-yl]-3-fluoro-phenol] has an inhibition at 1.14 µM of 83%.

From patent publication US9133181B2, “Substituted 6-(4-hydroxy-phenyl)-1H-pyrazolo[3,4-b]pyridine derivatives as kinase inhibitors” (SANOFI, priority 2012, dated 2015)
